In patent publication US11634404B2 (priority 2016, dated 2023):

Legend:
Type in all cases: cell-based
D3 DAR = D3 DAR (Homo sapiens (Human), UniProt P35462); details: β-arrestin recruitment, agonist; for D3 Emax: 'curve' = wrapped cell 'curve interrupted'
D2 DAR [1] = target: T1, D2 DAR (Homo sapiens (Human), UniProt P14416); details: β-arrestin recruitment, agonist; for D2 Emax: 'curve' = wrapped cell 'curve interrupted'
D2 DAR [2] = target: T1, D2 DAR; details: β-arrestin recruitment, antagonist

T1 sequence (P14416 whole entry): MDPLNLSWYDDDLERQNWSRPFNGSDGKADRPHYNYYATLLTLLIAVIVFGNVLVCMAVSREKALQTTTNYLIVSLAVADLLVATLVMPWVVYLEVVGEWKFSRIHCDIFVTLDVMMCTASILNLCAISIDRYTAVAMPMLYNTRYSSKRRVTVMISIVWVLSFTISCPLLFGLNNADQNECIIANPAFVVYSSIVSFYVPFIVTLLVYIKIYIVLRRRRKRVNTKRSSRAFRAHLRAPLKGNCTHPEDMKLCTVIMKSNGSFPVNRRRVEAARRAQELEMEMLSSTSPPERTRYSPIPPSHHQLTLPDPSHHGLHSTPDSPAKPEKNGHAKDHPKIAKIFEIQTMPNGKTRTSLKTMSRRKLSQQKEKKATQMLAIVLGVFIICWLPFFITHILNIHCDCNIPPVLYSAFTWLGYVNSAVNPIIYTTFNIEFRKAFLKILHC
D3 DAR, sequence (P35462 whole entry): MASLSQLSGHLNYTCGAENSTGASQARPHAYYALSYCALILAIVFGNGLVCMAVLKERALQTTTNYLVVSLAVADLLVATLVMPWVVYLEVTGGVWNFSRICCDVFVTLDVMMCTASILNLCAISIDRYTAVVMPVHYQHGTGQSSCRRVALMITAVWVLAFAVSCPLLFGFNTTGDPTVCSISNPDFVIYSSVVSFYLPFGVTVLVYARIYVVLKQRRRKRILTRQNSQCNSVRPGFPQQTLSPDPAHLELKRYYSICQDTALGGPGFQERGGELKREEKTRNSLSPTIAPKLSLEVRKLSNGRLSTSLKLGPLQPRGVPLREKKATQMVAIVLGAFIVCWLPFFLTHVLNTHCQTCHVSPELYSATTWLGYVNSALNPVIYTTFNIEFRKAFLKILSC

Row | Compound | EC50 (D3 DAR) [nM] | EC50 (D2 DAR [1]) [nM] | D2 IC50 (D2 DAR [2]) | also measured
1 | Cc1cccc2cc(C(=O)N3CCN(CCOc4cccnc4)CC3)[nH]c12 [Compound 73] | 25.7 | – | – | –
2 | COc1ccc(OCCN2CCN(C(=O)c3cc4ncccc4[nH]3)CC2)cc1 [Compound 59] | – | > 100000 | none | D2 Emax (D2 DAR [1]): curve
3 | COc1cccc(OCCN2CCN(C(=O)c3cc4ccccc4[nH]3)CC2)c1 [Compound 94] | 33.8 | – | – | –
4 | COc1ccc(OCCN2CCN(C(=O)c3cc4cccnc4[nH]3)CC2)cc1 [Compound 56] | 167 | – | – | –
5 | CCc1ccc(OCCN2CCN(C(=O)c3cc4ccccc4[nH]3)CC2)cc1 [Compound 98] | – | – | – | D2 EC50 (D2 DAR [1]): none; D2 Emax (D2 DAR [1]): none; IC50 (D2 DAR [2]): > 50000 nM
6 | O=C(c1cc2ccncc2[nH]1)N1CCN(CCOc2cccnc2)CC1 [Compound 8] | 81 | – | – | –
7 | O=C(c1cc2cccc(Cl)c2[nH]1)N1CCN(CCOc2cccnc2)CC1 [Compound 77] | – | 617 | none | –
8 | O=C(c1n[nH]c2ccccc12)N1CCN(CCOc2cccnc2)CC1 [Compound 7] | – | 4100 | None | –
9 | COc1ccc(C(=O)N2CCN(CCOc3ccccc3OC)CC2)cc1 [Compound 34] | 278 | – | – | –
10 | COc1ccc(OCCCN2CCN(C(=O)c3ccc(OC)cc3)CC2)cc1 [Compound 112] | – | – | – | D3 EC50 (D3 DAR): none; D3 Emax (D3 DAR): none
11 | COc1ccc2cc(C(=O)N3CCN(CCOc4cccnc4)CC3)[nH]c2c1 [Compound 71] | 6.4 | – | – | –
12 | COc1ccc2[nH]c(C(=O)N3CCN(CCOc4cccnc4)CC3)cc2c1 [Compound 72] | – | 2600 | none | –
13 | O=C(c1nc2ccccc2[nH]1)N1CCN(CCOc2cccnc2)CC1 [Compound 5] | – | 2400 | None | –
14 | COc1ccc(OCCCN2CCN(C(=O)c3ccc(Cl)cc3)CC2)cc1 [Compound 115] | – | – | – | D3 EC50 (D3 DAR): none; D3 Emax (D3 DAR): none
15 | COc1ccc(OCCCN2CCN(C(=O)c3cc4ccccc4[nH]3)CC2)cc1 [Compound 122] | – | – | – | D3 EC50 (D3 DAR): none; D3 Emax (D3 DAR): none
16 | COc1ccc(OCCN2CCN(C(=O)c3cc4ccccc4s3)CC2)cc1 [Compound 61] | 3300 | – | – | –
17 | O=C(c1cc2cc(Cl)ccc2[nH]1)N1CCN(CCOc2cccnc2)CC1 [Compound 79] | – | 1400 | none | –
18 | O=C(c1cc2c(Cl)cccc2[nH]1)N1CCN(CCOc2cccnc2)CC1 [Compound 18] | – | 217 | None | –
19 | COc1ccc(OCCCCN2CCN(C(=O)c3cc4ccccc4[nH]3)CC2)cc1 [Compound 123] | – | – | – | D3 EC50 (D3 DAR): none; D3 Emax (D3 DAR): none
20 | O=C(c1cc2ccccc2s1)N1CCN(CCOc2cccnc2)CC1 [Compound 6] | 13.3 | – | – | –
21 | O=C(c1cc2cccnc2[nH]1)N1CCN(CCOc2cccnc2)CC1 [Compound 4, (4-(2-(pyridin-3-yloxy)ethyl)piperazin-1-yl)(1H-pyrrolo[2,3-b]pyridin-2-yl)methanone] | 13.5 | – | – | –
22 | O=C(c1cc2ccccc2[nH]1)N1CCN(CCOc2ccc(Br)cc2)CC1 [Compound 102] | – | – | – | D2 EC50 (D2 DAR [1]): none; D2 Emax (D2 DAR [1]): none; IC50 (D2 DAR [2]): > 100000 nM
23 | COc1ccc2[nH]c(C(=O)N3CCN(CCOc4cccnc4)CC3)cc2c1 [Compound 28] | – | 2600 | None | –

Row | Compound | EC50 (D3 DAR) [nM] | EC50 (D2 DAR [1]) [nM] | D2 IC50 (D2 DAR [2]) | also measured
24 | O=C(c1cc2cccnc2[nH]1)N1CCN(CCOc2cccnc2)CC1 [Compound 83] | 13.5 | – | – | –
25 | COc1ccc(OCCN2CCN(C(=O)c3cc4cc(Cl)ccc4[nH]3)CC2)cc1 [Compound 53] | – | – | none | D2 EC50 (D2 DAR [1]): none; D2 Emax (D2 DAR [1]): none
26 | COc1ccc(OC(C)CN2CCN(C(=O)c3cc4ccccc4[nH]3)CC2)cc1 (stereo not shown) [Compound 120] | 82 | – | – | –
27 | O=C(c1cc2ccccc2[nH]1)N1CCN(CCOc2cccnc2)CC1 [Compound 106] | – | – | none | –
28 | COc1ccc(OCCN2CCN(C(=O)c3cc4c(C)cccc4[nH]3)CC2)cc1 [Compound 30] | 266 | – | – | –
29 | COc1cccc(OCCN2CCN(C(=O)c3cc4ccccc4[nH]3)CC2)c1 [Compound 14] | 33.8 | – | – | –
30 | Cc1cccc2[nH]c(C(=O)N3CCN(CCOc4cccnc4)CC3)cc12 [Compound 76] | – | 180 | none | –
31 | O=C(c1cc2cccc(Cl)c2[nH]1)N1CCN(CCOc2cccnc2)CC1 [Compound 21] | – | 617 | None | –
32 | O=C(c1cc2ccccc2[nH]1)N1CCN(CCOc2ccc([N+](=O)[O-])cc2)CC1 [Compound 103] | – | – | none | D2 EC50 (D2 DAR [1]): none; D2 Emax (D2 DAR [1]): none
33 | COc1ccc(OCCN(C)CCN(C)C(=O)c2ccc(OC)cc2)cc1 [Compound 118] | – | – | – | D3 EC50 (D3 DAR): none; D3 Emax (D3 DAR): none
34 | COc1cccc(OCCN2CCN(C(=O)c3nc4ccccc4[nH]3)CC2)c1 [Compound 9] | 285 | – | – | –
35 | COc1ccc2cc(C(=O)N3CCN(CCOc4cccnc4)CC3)[nH]c2c1 [Compound 23] | 6.4 | – | – | –
36 | Cc1cccc2cc(C(=O)N3CCN(CCOc4cccnc4)CC3)[nH]c12 [Compound 26] | 25.7 | – | – | –
37 | CC(CN1CCN(C(=O)c2cc3ccccc3[nH]2)CC1)Oc1ccc(Cl)cc1 (stereo not shown) [Compound 121] | 32 | – | – | –
38 | COc1cccc(OCCN2CCN(C(=O)c3cc4ccccc4[nH]3)CC2)c1 [Compound 92] | – | – | – | D3 EC50 (D3 DAR): none; D3 Emax (D3 DAR): none
39 | O=C(c1cc2c(Cl)cccc2[nH]1)N1CCN(CCOc2cccnc2)CC1 [Compound 80] | – | 217 | none | –
40 | COc1ccc(C(=O)N2CCN(CCOc3ccc4c(c3)OCO4)CC2)cc1 [Compound 66] | – | 7400 | None | –
41 | O=C(c1cc2ccc(Cl)cc2[nH]1)N1CCN(CCOc2cccnc2)CC1 [Compound 17] | – | 183 | None | –
42 | O=C(c1cc2ccccc2[nH]1)N1CCN(CCOc2ccc3[nH]ccc3c2)CC1 [Compound 16] | 60.9 | – | – | –
43 | COc1ccc(CCCN2CCN(C(=O)c3ccc(OC)cc3)CC2)cc1 [Compound 113] | – | – | – | D3 EC50 (D3 DAR): none; D3 Emax (D3 DAR): none
44 | O=C(c1cc2ccc(Cl)cc2[nH]1)N1CCN(CCOc2cccnc2)CC1 [Compound 78] | – | 183 | none | –
45 | COc1ccc(OCCN2CCN(C(=O)c3ccc4[nH]ccc4c3)CC2)cc1 [Compound 31] | – | 2500 | – | –
46 | COc1ccc(OCCN2CCN(C(=O)c3cc4ccc(Cl)cc4[nH]3)CC2)cc1 [Compound 52] | 225 | – | – | –
